Reference: PubChem BioAssay AID1963960 (Molecular Pharmacology Branch, DTP, NCI, 2024)

Tested on: MDA-MB-468 spheroids with HUVEC/MSC, viability
Test: Anticancer human tumor MDA-MB-468 cell line growth inhibition [PI3K];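 further: spheroids exposed to agents for seven days before readout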;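 on viability, T/C: 100% = DMSO vehicle control viability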
Conditions: for IC50: curve of first compound; for viability, T/C: stronger effect = lower value; active means viability on the fitted dose curve at most 10% of control; inactive means the rest
How it was run: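 Combination activity was assessed by viability in multicellular tumor spheroids carrying HUVEC and MSC components. Agents were tested with PI3K inhibitors from a Cmax-based top dose (or 10 microM) downward in half-log increments.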

[1] = second compound 0.0316 µM, first compound 0.0316 µM
[2] = second compound 0.0316 µM, first compound 0.1 µM
[3] = second compound 0.0316 µM, first compound 0.316 µM
[4] = second compound 0.0316 µM, first compound 1 µM
[5] = second compound 0.0316 µM, first compound 3.16 µM
[6] = second compound 0.0316 µM, first compound 10 µM
[7] = second compound 0.1 µM, first compound 0.0316 µM
[8] = second compound 0.1 µM, first compound 0.1 µM
[9] = second compound 0.1 µM, first compound 0.316 µM
[10] = second compound 0.1 µM, first compound 1 µM
[11] = second compound 0.1 µM, first compound 3.16 µM
[12] = second compound 0.1 µM, first compound 10 µM
[13] = second compound 0.316 µM, first compound 0.0316 µM
[14] = second compound 0.316 µM, first compound 0.1 µM
[15] = second compound 0.316 µM, first compound 0.316 µM
[16] = second compound 0.316 µM, first compound 1 µM
[17] = second compound 0.316 µM, first compound 3.16 µM
[18] = second compound 0.316 µM, first compound 10 µM
[19] = second compound 1 µM, first compound 0.0316 µM
[20] = second compound 1 µM, first compound 0.1 µM
[21] = second compound 1 µM, first compound 0.316 µM
[22] = second compound 1 µM, first compound 1 µM
[23] = second compound 1 µM, first compound 3.16 µM
[24] = second compound 1 µM, first compound 10 µM
[25] = second compound 3.16 µM, first compound 0.0316 µM
[26] = second compound 3.16 µM, first compound 0.1 µM
[27] = second compound 3.16 µM, first compound 0.316 µM
[28] = second compound 3.16 µM, first compound 1 µM
[29] = second compound 3.16 µM, first compound 3.16 µM
[30] = second compound 3.16 µM, first compound 10 µM
[31] = second compound 10 µM, first compound 0.0316 µM
[32] = second compound 10 µM, first compound 0.1 µM
[33] = second compound 10 µM, first compound 0.316 µM
[34] = second compound 10 µM, first compound 1 µM
[35] = second compound 10 µM, first compound 3.16 µM
[36] = second compound 10 µM, first compound 10 µM

CC1(C)CCC(CN2CCN(c3ccc(C(=O)NS(=O)(=O)c4ccc(NCC5CCOCC5)c([N+](=O)[O-])c4)c(Oc4cnc5[nH]ccc5c4)c3)CC2)=C(c2ccc(Cl)cc2)C1 + CC(Nc1ncnc2nc[nH]c12)c1cc2cccc(Cl)c2c(=O)n1-c1ccccc1
4.53 µM: IC50 (second compound 0.1 µM)
3.73 µM: IC50 (second compound 1 µM)
4.8 µM: IC50 (second compound 0.0316 µM)
0.0316 µM: IC50 (second compound 3.16 µM)
4.3 µM: IC50 (second compound 0.316 µM)
inactive: viability, T/C [1] 90.5% | viability, T/C [2] 84.6% | viability, T/C [3] 87% | viability, T/C [4] 87.4% | viability, T/C [5] 69.9% | viability, T/C [6] 15.2% | viability, T/C [7] 83.8% | viability, T/C [8] 82.2% | viability, T/C [9] 79.6% | viability, T/C [10] 76.1% | viability, T/C [11] 65.1% | viability, T/C [12] 18.3% | viability, T/C [13] 76.5% | viability, T/C [14] 68.5% | viability, T/C [15] 78% | viability, T/C [16] 68.8% | viability, T/C [17] 62.6% | viability, T/C [18] 17.2% | viability, T/C [19] 58.9% | viability, T/C [20] 65% | viability, T/C [21] 69.9% | viability, T/C [22] 72.2% | viability, T/C [23] 55.8% | viability, T/C [24] 15.5% | viability, T/C [25] 50% | viability, T/C [26] 46.9% | viability, T/C [27] 47.2% | viability, T/C [28] 49.4% | viability, T/C [29] 50.5% | viability, T/C [30] 13.8% | viability, T/C [31] 38.4% | viability, T/C [32] 30.9% | viability, T/C [33] 39% | viability, T/C [34] 42.5% | viability, T/C [35] 32.3% | viability, T/C [36] 15.4%
< 0.0316 µM: IC50 (second compound 10 µM)

C[C@@H](NC(=O)c1ncnc(N)c1Cl)c1ncc(C(=O)Nc2cc(C(F)(F)F)c(Cl)cn2)s1 + CC(Nc1ncnc2nc[nH]c12)c1cc2cccc(Cl)c2c(=O)n1-c1ccccc1
> 10 µM: IC50 (second compound 0.0316 µM) | IC50 (second compound 0.1 µM) | IC50 (second compound 0.316 µM) | IC50 (second compound 1 µM) | IC50 (second compound 3.16 µM)
< 0.0316 µM: IC50 (second compound 10 µM)
inactive: viability, T/C [1] 107% | viability, T/C [2] 114% | viability, T/C [3] 92.5% | viability, T/C [4] 109% | viability, T/C [5] 91.3% | viability, T/C [6] 94.9% | viability, T/C [7] 83% | viability, T/C [8] 94.3% | viability, T/C [9] 93.3% | viability, T/C [10] 89% | viability, T/C [11] 93.5% | viability, T/C [12] 83.7% | viability, T/C [13] 84.8% | viability, T/C [14] 76.8% | viability, T/C [15] 83.1% | viability, T/C [16] 82% | viability, T/C [17] 75.5% | viability, T/C [18] 83.7% | viability, T/C [19] 70% | viability, T/C [20] 65.8% | viability, T/C [21] 75.3% | viability, T/C [22] 81.8% | viability, T/C [23] 75.2% | viability, T/C [24] 64.5% | viability, T/C [25] 61.8% | viability, T/C [26] 60.2% | viability, T/C [27] 63.7% | viability, T/C [28] 55.7% | viability, T/C [29] 61.8% | viability, T/C [30] 58.9% | viability, T/C [31] 42.3% | viability, T/C [32] 40.6% | viability, T/C [33] 46.1% | viability, T/C [34] 53% | viability, T/C [35] 41.7% | viability, T/C [36] 39.2%

Cn1ncnc1[C@H]1c2n[nH]c(=O)c3cc(F)cc(c23)N[C@@H]1c1ccc(F)cc1 + CC(Nc1ncnc2nc[nH]c12)c1cc2cccc(Cl)c2c(=O)n1-c1ccccc1
> 0.1 µM: IC50 (second compound 0.0316 µM) | IC50 (second compound 0.1 µM)
0.0725 µM: IC50 (second compound 1 µM)
0.0962 µM: IC50 (second compound 0.316 µM)
inactive: viability, T/C (second compound 0.0316 µM, first compound 0.000316 µM) 84.5% | viability, T/C (second compound 0.0316 µM, first compound 0.001 µM) 90.7% | viability, T/C (second compound 0.0316 µM, first compound 0.00316 µM) 86.9% | viability, T/C (second compound 0.0316 µM, first compound 0.01 µM) 78.1% | viability, T/C [1] 68.1% | viability, T/C [2] 51.2% | viability, T/C (second compound 0.1 µM, first compound 0.000316 µM) 78.3% | viability, T/C (second compound 0.1 µM, first compound 0.001 µM) 95.1% | viability, T/C (second compound 0.1 µM, first compound 0.00316 µM) 85% | viability, T/C (second compound 0.1 µM, first compound 0.01 µM) 66% | viability, T/C [7] 65.3% | viability, T/C [8] 51.7% | viability, T/C (second compound 0.316 µM, first compound 0.000316 µM) 73.2% | viability, T/C (second compound 0.316 µM, first compound 0.001 µM) 74.5% | viability, T/C (second compound 0.316 µM, first compound 0.00316 µM) 73% | viability, T/C (second compound 0.316 µM, first compound 0.01 µM) 69.9% | viability, T/C [13] 64% | viability, T/C [14] 49.5% | viability, T/C (second compound 1 µM, first compound 0.000316 µM) 59.3% | viability, T/C (second compound 1 µM, first compound 0.001 µM) 74% | viability, T/C (second compound 1 µM, first compound 0.00316 µM) 60.1% | viability, T/C (second compound 1 µM, first compound 0.01 µM) 64.5% | viability, T/C [19] 57.8% | viability, T/C [20] 46.8% | viability, T/C (second compound 3.16 µM, first compound 0.000316 µM) 55.5% | viability, T/C (second compound 3.16 µM, first compound 0.001 µM) 52.1% | viability, T/C (second compound 3.16 µM, first compound 0.00316 µM) 53.4% | viability, T/C (second compound 3.16 µM, first compound 0.01 µM) 52.8% | viability, T/C [25] 51.9% | viability, T/C [26] 38.7% | viability, T/C (second compound 10 µM, first compound 0.000316 µM) 39.4% | viability, T/C (second compound 10 µM, first compound 0.001 µM) 37.8% | viability, T/C (second compound 10 µM, first compound 0.00316 µM) 40.6% | viability, T/C (second compound 10 µM, first compound 0.01 µM) 36.9% | viability, T/C [31] 35.2% | viability, T/C [32] 26.9%
< 0.000316 µM: IC50 (second compound 10 µM)
0.037 µM: IC50 (second compound 3.16 µM)
